pIC50, pKi: −log10 of the molar value. Read-outs that look alike come from different tables or passages of the source.
What was measured:
[1] = biological target: T1, purified recombinant rat FAAH (Rattus norvegicus, UniProt P97612); assay: FAAH inhibition enzyme assay (14C-oleamide hydrolysis, Dixon plot), rat enzyme; type: biochemical; conditions: for Ki: Table 3, read-out: Ki, μM (rat)
T1 construct: The truncated rat FAAH (rFAAH) was expressed in E. coli and purified as described; made in house; host or cells: Escherichia coli
T1 sequence (P97612 30-579 limits assumed): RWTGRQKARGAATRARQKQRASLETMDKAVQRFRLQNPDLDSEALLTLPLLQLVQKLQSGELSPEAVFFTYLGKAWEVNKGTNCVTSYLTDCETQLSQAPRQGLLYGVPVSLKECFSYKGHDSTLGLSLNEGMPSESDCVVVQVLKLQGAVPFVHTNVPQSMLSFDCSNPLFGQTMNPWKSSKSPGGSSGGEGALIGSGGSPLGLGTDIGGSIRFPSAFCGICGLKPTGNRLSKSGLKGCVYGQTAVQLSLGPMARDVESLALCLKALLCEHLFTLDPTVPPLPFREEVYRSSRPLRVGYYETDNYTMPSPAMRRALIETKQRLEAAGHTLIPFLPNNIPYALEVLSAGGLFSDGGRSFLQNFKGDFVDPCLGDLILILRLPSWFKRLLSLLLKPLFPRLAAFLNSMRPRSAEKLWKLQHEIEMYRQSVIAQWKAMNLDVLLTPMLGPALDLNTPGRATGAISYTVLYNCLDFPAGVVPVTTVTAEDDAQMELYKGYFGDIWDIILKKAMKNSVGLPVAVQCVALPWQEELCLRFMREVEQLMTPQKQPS
Excerpt: (§1) The purified recombinant rFAAH was used in the inhibition assays unless otherwise indicated.
(§2) The ^14C-labeled oleamide (substrate) and oleic acid (product) were extracted with EtOAc and analyzed by TLC.

[2] = biological target: T2, triacylglycerol hydrolase (TGH) (Mus musculus, UniProt Q8VCT4); assay: Activity based protein profiling (proteome-wide selectivity screening, FP-Rh), TGH; type: biochemical; conditions: Table 4; for TGH selectivity (value in parentheses): ratio TGH IC50 / FAAH IC50 (fold selectivity for FAAH); for pIC50: activity based protein profiling
T2 construct: with FP-Rh in brain and heart membrane proteome; from tissue; host or cells: brain and heart membrane proteome
T2 sequence (Q8VCT4 19-565): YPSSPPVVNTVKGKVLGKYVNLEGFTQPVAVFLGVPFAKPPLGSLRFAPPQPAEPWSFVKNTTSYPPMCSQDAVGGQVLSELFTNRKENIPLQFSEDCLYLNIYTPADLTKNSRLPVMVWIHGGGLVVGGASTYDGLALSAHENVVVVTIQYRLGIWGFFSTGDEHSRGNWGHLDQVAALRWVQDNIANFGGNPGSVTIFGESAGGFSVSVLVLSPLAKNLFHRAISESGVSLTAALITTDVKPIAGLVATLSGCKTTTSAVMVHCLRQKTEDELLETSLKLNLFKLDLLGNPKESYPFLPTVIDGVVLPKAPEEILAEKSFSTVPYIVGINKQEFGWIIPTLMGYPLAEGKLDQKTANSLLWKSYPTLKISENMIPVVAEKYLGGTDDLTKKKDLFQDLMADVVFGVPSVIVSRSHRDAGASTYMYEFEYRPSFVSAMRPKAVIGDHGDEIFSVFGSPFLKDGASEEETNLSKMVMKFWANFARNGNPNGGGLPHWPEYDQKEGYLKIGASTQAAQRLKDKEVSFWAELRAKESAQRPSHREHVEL
Excerpt: (§3) Enzyme targets such as FAAH, KIAA1363, and TGH are labeled at the left margin.

KIAA1363 = biological target: T3, KIAA1363 (Mus musculus, UniProt Q8BLF1); assay: Activity based protein profiling (proteome-wide selectivity screening, FP-Rh), KIAA1363; type: biochemical; conditions: Table 4; for pIC50: activity based protein profiling; for KIAA1363 selectivity (value in parentheses): ratio KIAA1363 IC50 / FAAH IC50 (fold selectivity for FAAH)
T3 construct: with FP-Rh in brain and heart membrane proteome; from tissue; host or cells: brain and heart membrane proteome
T3 sequence (Q8BLF1 1-408): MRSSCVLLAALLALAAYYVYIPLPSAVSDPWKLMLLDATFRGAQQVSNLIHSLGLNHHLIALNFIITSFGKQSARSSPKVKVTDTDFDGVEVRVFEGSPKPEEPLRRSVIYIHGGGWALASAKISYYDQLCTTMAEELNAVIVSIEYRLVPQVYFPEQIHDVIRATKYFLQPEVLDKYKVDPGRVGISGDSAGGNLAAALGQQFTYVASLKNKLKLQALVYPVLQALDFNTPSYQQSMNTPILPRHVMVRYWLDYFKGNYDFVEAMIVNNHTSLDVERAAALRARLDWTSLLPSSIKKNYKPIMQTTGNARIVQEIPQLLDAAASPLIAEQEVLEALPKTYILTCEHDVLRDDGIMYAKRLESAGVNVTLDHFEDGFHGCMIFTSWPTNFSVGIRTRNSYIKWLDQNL
Excerpt: as §3

[3] = biological target: T4, recombinant human fatty acid amide hydrolase (Homo sapiens, UniProt O00519); assay: FAAH inhibition enzyme assay, human enzyme (COS-7 lysate); type: biochemical; conditions: Table 3
T4 construct: The full-length human FAAH (hFAAH) was expressed in COS-7 cells as described; expressed in transfected cells; host or cells: COS-7
T4 sequence (O00519 1-579): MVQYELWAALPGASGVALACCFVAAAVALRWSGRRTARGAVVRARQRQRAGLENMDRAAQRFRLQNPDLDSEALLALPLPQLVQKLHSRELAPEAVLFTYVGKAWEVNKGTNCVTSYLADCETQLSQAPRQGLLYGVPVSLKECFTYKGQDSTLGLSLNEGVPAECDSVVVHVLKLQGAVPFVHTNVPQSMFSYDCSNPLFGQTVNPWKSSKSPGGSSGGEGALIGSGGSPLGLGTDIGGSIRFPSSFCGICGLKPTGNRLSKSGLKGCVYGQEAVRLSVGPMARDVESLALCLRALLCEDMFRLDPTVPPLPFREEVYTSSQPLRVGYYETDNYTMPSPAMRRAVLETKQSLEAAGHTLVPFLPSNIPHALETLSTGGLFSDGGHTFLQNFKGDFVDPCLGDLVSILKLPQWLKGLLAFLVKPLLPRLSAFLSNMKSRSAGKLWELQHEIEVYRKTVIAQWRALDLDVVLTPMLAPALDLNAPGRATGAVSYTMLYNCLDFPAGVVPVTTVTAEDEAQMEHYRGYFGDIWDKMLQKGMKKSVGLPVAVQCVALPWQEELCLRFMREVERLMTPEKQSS
Excerpt: as §1, §2

[4] = CREAE mice; cited from earlier work
FAAH [5] = biological target: T5, FAAH (Mus musculus, UniProt O08914); assay: Activity based protein profiling (proteome-wide selectivity screening, FP-Rh), FAAH; type: biochemical; conditions: Table 4
T5 construct: with FP-Rh in brain and heart membrane proteome; from tissue; host or cells: brain and heart membrane proteome
T5 sequence (O08914 1-579): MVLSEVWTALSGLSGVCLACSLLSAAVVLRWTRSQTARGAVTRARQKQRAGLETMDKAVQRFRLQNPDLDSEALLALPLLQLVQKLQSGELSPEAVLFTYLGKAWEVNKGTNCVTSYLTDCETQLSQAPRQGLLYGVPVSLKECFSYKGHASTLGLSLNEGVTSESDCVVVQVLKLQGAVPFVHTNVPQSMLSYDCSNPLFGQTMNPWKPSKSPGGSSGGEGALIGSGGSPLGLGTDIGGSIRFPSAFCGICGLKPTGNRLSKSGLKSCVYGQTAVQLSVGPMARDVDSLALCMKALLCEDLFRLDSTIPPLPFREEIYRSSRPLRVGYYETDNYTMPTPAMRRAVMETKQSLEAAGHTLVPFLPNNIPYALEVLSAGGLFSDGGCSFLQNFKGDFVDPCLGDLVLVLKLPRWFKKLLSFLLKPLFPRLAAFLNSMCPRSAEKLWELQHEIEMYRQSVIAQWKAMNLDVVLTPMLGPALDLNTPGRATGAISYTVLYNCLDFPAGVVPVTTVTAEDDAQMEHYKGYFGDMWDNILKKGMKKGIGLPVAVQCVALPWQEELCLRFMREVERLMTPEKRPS
Excerpt: as §3

[6] = rats; cited from earlier work
[7] = rat; cited from earlier work
[8] = rats; cited from earlier work; remark: listed apart in the source
[9] = rats; cited from earlier work; remark: listed apart in the source
FAAH [10] = conditions: cited from earlier work
[11] = rats; cited from earlier work; remark: listed apart in the source
[12] = Table 2, rat FAAH, pH 9 assay conditions, read-out: Ki

SMILES | pKi [1, 12] | Ki ([1]; rat FAAH) | pKi ([1]; Table 4, read-out: FAAH Ki) | TGH selectivity (value in parentheses) [2] | pIC50 (KIAA1363) | KIAA1363 selectivity (value in parentheses) (KIAA1363) | Ki [3] | pIC50 [2] | pIC50 (FAAH [5]) | further results
O=C(CCCCCCc1ccccc1)c1nnc(-c2ccccn2)o1 [8b, 7-Phenyl-1-(5-(pyridin-2-yl)-1,3,4-oxadiazol-2-yl)-heptan-1-one] | 9.54 | 0.00029 µM | 9.54 | 140 | 4.05 | 90000 | 0.0012 µM |  |  | 
CCCCCCCCCCCCCCCCS(=O)(=O)F [AM374] |  |  |  |  |  |  |  |  |  | spasticity [4]: significantly reduce spasticity
O=C(CCCCCCc1ccccc1)c1noc(-c2ccccn2)n1 [10b, 7-Phenyl-1-(5-(pyridin-2-yl)-1,2,4-oxadiazol-3-yl)-heptan-1-one] | 8.96 | 0.0011 µM | 8.96 | 60 | < 4.00 | > 14000 | 0.016 µM | 6.40 | 8.15 | 
NC(=O)c1cccc(-c2cccc(OC(=O)NC3CCCCC3)c2)c1 [URB-597] |  |  |  |  |  |  |  |  |  | efficacy in model of anxiety [6]: efficacy; analgesic efficacy / activity, hot plate [7]: analgesic efficacy
Cc1nc(-c2ccccc2)c(-c2ccccc2)n1CCCCCCNC(=O)Oc1ccccc1F [BMS-1] |  |  |  |  |  |  |  |  |  | analgesic effect [8]: analgesic effect; analgesic effect [9]: analgesic effect
O=C(O)c1cccc(-c2cnc(C(=O)CCCCCCc3ccccc3)o2)n1 [7g] |  |  |  | > 1000 | < 4.00 | > 1000 | 0.026 µM | < 4.00 | 7.00 | pKi ([1]; pH=7.4 (physiological pH), read-out: Ki): 7.99; pKi ([1]; pH=8, read-out: Ki): 7.84
O=C(CCCCCCc1ccccc1)c1ncc(-c2ccccn2)o1 [OL-135] |  |  |  |  |  |  |  |  |  | FAAH inhibition (in words) (FAAH [10]): potent inhibitor; analgesic activity, tail emersion [11]: analgesic activity; analgesic efficacy / activity, hot plate [7]: analgesic activity
O=C(CCCCCCc1ccccc1)c1nnc(-c2ccccn2)s1 [12b, 7-Phenyl-1-(5-(pyridin-2-yl)-1,3,4-thiadiazol-2-yl)-heptan-1-one] | 9.10 | 0.0008 µM | 9.10 | 150 | < 4.00 | > 3300 | 0.003 µM | 5.35 | 7.52 | 
O=C(O)c1cccc(-c2nc(C(=O)CCCCCCc3ccccc3)no2)n1 [10g, 6-(3-(7-Phenylheptanoyl)-1,2,4-oxadiazol-5-yl)-picolinic Acid] | 7.28 | 0.053 µM | 7.28 | > 1400 | < 4.00 | > 1400 | 0.11 µM | < 4.00 | 7.15 | 
O=C(CCCCCCc1ccccc1)c1nc(-c2ccccn2)no1 [9b, 7-Phenyl-1-(3-(pyridin-2-yl)-1,2,4-oxadiazol-5-yl)-heptan-1-one] | 9.47 | 0.00034 µM | 9.47 | 10 | 4.52 | 10000 | 0.00092 µM | 7.52 | 8.52 | 

— patent publication US8987312B2, “Alpha-keto heterocycles as FAAH inhibitors” (The Scripps Research Institute, priority 2008, dated 2015)
